Results on three sequences are retold here after patent US9884012B2, “Use of PEDF-derived polypeptides for promoting muscle or tendon regeneration or arteriogenesis” (MacKay Memorial Hospital, priority 2012, dated 2018).

Experiment [1] concerns tibialis anterior muscle. As to the kind of experiment: hindlimb ischemia model, tibialis anterior muscle necrosis/fibrosis and centrally nucleated fibers. It counts as in vivo, C57BL/6 wild-type mice. The following applies: two weeks after surgery, sustained-release formulation (Bolus: bolus 29-mer). The protocol:
The gracilis, adductor magnus, soleus, and tibialis muscles were fixed in 4% paraformaldehyde, dehydrated with graded ethanol series, and paraffinized. Fixed samples were de-paraffinized in xylene and rehydrated in a graded series of ethanol. Tissues were sliced into 5-μm sections. General histology was performed using H&E dye.
To ascertain the number of centrally nucleated muscle fibers, sections were stained with H&E and then photographed as described above. At least 100 stained fibers were randomly chosen from each photo. Muscle fibers were judged centrally nucleated if one or more nuclei were not located at the periphery of the fiber. The data were expressed as a % of the total number of muscle fibers counted. Results were evaluated from 6 sections per muscle section, and 10 mice at each group.
(§1) 6-week-old female C57BL/6 wild-type mice were anesthetized by an intraperitoneal injection of a mixture of zoletil (6 mg/kg) and xylazine (3 mg/kg). Hair was removed from the hindquarter with a depilating cream. To establish hindlimb ischemia, unilateral external iliac and femoral arteries and veins were ligated, cut, and excised. After surgery, the mice were randomly assigned to several experimental groups (n=6, each group) and treated as follows. In the blank control group, the mice were treated with 50 μl of blank alginate gel, whereas in the bolus control group, the mice received the bolus formulation containing 29-mer. In the PEDF peptide/alginate gel treatment groups, the mice received 50 μl of the sustained-release formulation, which comprised either 29-mer, 24-mer, or 20-mer. Additionally, in a PEDF 18-mer control group, mice were treated with a sustained-release formulation containing a PEDF 18-mer peptide. Treatments were applied by way of a single intramuscular injection to the gracilis muscle immediately after femoral artery and vein excision operation. The incision was closed after the wound was irrigated with sterile saline.
In most hindlimb ischemia models, tissue necrosis generally occurs in the muscles below the knee. For example, tibialis anterior muscle, which is distant to the gracilis muscle where the treatment was administered, often undergoes extensive necrosis with regeneration after femoral artery excision. The intensity of Masson's trichrome blue color staining depended on the content of collagen fibers in the investigated tissue, and fibrosis is the result of necrosis. […] Results from representative samples are illustrated in FIGS. 4A and 4B.
Statistical analyses regarding injured area (necrotic area+fibrotic area) and numbers of centrally nucleated fibers were also performed at two weeks after the surgery, and the results were summarized in Table 2. The injured area is expressed as the percent of total stained area (%), and the centrally nucleated fibers is expressed as the total number of muscle fibers counted (%).

Experiment [2] concerns adductor magnus muscle arterioles. As to the kind of experiment: hindlimb ischemia model, arteriole density (α-SMA) in adductor magnus muscle. It counts as in vivo, C57BL/6 wild-type mice. To be noted: two weeks after surgery, sustained-release formulation (Bolus: bolus 29-mer). As for the experimental part:
The small artery densities (α-SMA positive cells surrounding the whole circumference of the vessel) were measured and images were taken from 10 randomly-selected areas of adductor magnus muscle (200× magnification) in each sample, and blinded quantification was performed in triplicate by manually counting within each section; values from five sections were then averaged and expressed as arteriole density per mm^2.
as §1
To investigate the arteriogenic effect of the present sustained-release formulation, adductor magnus muscles (located at the same level as femoral artery excision and in which arteriogenesis responsible for establishing collateral circulation is expected to be found) were harvested from animals in each experimental condition, two weeks after the surgery. Arterioles in muscle cross sections were identified by immunohistological staining for vascular smooth muscle cells (α-SMA; brown), and nuclei were labeled with hematoxylin; representative photographs were provided in FIG. 5. Quantitative analysis was also performed and the results were summarized in Table 3, and the data were expressed as α-SMA-positive arterioles per mm^2 in the peri-injury region.

Experiment [3] deals with aortic ring explants. As to the kind of experiment: rat aortic ring sprouting assay (ex vivo neovessel sprouting). It counts as cell-based. The following applies: day 4; 50 ng/ml PEDF peptide, 50 ng/ml VEGF-A, 20 ng/ml FGF-2; MCDB131, 1% FBS, Matrigel. The protocol: To further confirm the neovessel development promoted by PEDF peptides, rat aortic ring sprouting assay was performed. Thoracic aortas were removed from euthanized rats and gently stripped of peri-aortic fibroadipose tissue. Aortas were sectioned into about 2-mm length rings, which were then embedded in a growth factor-reduced Matrigel. Gels containing the aortic rings were polymerized in 12-well plates incubated at 37° C. for 30 minutes. 1 ml of MCDB131 medium supplemented with 100 units/ml penicillin and […] streptomycin, 1% FBS, and a supplemental agent (50 ng/ml VEGF-A, 20 ng/ml FGF-2, or 50 ng/ml 29-mer, 24-mer, 20-mer, Mo 29-mer, Mo 20-mer, 25-mer, or 18-mer) were added to the Matrigel-containing explants. The cultures were propagated at 37° C. in a humidified incubator for up to 4 days, with media changes every other day. Neovessel sprouting was assessed until day 4 using an inverted microscope platform (Leica) with bright-field optics; representative photographs were provided in FIG. 6. Quantification of neovessel sprouting was assessed using Image-Pro Plus 6.0 software (Dendrites program). The experiment was repeated in triplicate.

Experiment [4] relates to tendon stem cells (TSCs) in injured tendon. As to the kind of experiment: tendo Achilles injury model, in vivo TSC proliferation (nucleostemin staining). Set-up: species or system Sprague-Dawley rats. The following applies: injured tendon specimens of Example 4.1; sustained-release formulation (Bolus: bolus 29-mer). The protocol: De-paraffinized tissue sections or 4% paraformaldehyde fixed rabbit tendon stem cells (TSCs) were blocked with 10% goat serum and 5% BSA for 1 hour. Double staining was done using primary antibodies against α-SMA (1:100 dilution), IB4 (5 μg/ml), Pax7 (1:100 dilution), nucleostemin (1:100 dilution) and type I collagen 1A1 (1:50) at 37° C. for 2 hours, followed by incubation with the appropriate rhodamine- or FITC-conjugated donkey IgG for 1 hour at RT. Nuclei were located by counterstaining with Hoechst 33258 for 7 minutes. Images were captured using a Zeiss epifluorescence microscope with a CCD camera.
To investigate the effects of the present PEDF peptides on tendon regeneration, a rat model with tendon injury was established as follows. Adult 10-week-old male Sprague-Dawley rats (total n=50; initial body weight=312±11 g) were anesthetized by an intraperitoneal injection of a xylazine (10 mg/kg). Then, the left tendo Achilles injury was created by full-thickness insertion of an 18-gauge needle through tendo Achilles 1 cm proximal to its insertion into the calcaneum. This created a horizontal (transaction) wound which was flanked by intact tendon tissue on both sides to prevent the retraction of severed ends.
The rats were randomly assigned (n=10/group) to five experimental groups and treated as follows. In the blank control group, the mice were treated with 150 μl of blank alginate gel. For the bolus control group, 150 μl of the bolus formulation (29-mer) was administered. […]
Specimens obtained from animals in different experimental groups of Example 4.1 were stained for nucleostemin (green) to investigate whether in vivo TSC proliferation would be promoted by the present sustained-release formulation during the tendon wound healing process. In quantitative analysis, ten randomly selected microscopic fields in each experimental group were photographed, and the percentage of nucleostemin-positive cells per total cells (counterstained by Hoechst 33258; blue) was calculated.

Marks after values point to notes of the source that are not given here.

On to “SLGAEQRTESIIHRALYYDL [20-mer, synthetic peptide corresponding to residues 93-112 of human PEDF]”, for which, in experiment [1], the “Centrally nucleated fibers (%)” value was 61.2 ± 5.8 % and the “Injured Area (%) (necrotic area + fibrotic area, percent of total stained area)” value worked out at 38.0 ± 5.2 %. Moreover, the “Arteriole Density per mm^2 (α-SMA-positive arterioles)” value in experiment [2] came out at 10.7 ± 1.2 per mm^2. Also, the “Neovessel Sprouting Fold” value in experiment [3] was 6.5* fold of untreated aortic ring. For the same sequence, the “Nucleostemin Labeling Index (%)” value in experiment [4] stood at 15.0 ± 3.9 %.
For “SLGAEQRTESIIHRALYYDLISSPDIHGT [29-mer, synthetic peptide corresponding to residues 93-121 of human PEDF]” the same measures were 72.5 ± 5.2 %, 39.5 ± 4.2 %, 11.7 ± 1.5 per mm^2, 5.6* fold of untreated aortic ring and 16.4 ± 2.9 %.
“SLGAEQRTESIIHRALYYDLISSP [24-mer, synthetic peptide corresponding to residues 93-116 of human PEDF]”: in experiment [1], the “Centrally nucleated fibers (%)” value was found to be 67.8 ± 5.3 % and the “Injured Area (%) (necrotic area + fibrotic area, percent of total stained area)” value was found to be 36.8 ± 5.5 %. In experiment [2], the “Arteriole Density per mm^2 (α-SMA-positive arterioles)” value turned out to be 10.0 ± 0.58 per mm^2. In addition, in experiment [3], the “Neovessel Sprouting Fold” value is on record as 6.2* fold of untreated aortic ring. In experiment [4], the “Nucleostemin Labeling Index (%)” value was found to be 16.8 ± 4.2 %.
